Where two headings read alike, the source gives them in different places.
Columns and labels:
human A1 AR = target: T1, human A1 AR (Homo sapiens, UniProt P30542); test: Radioligand competition binding with 125I-ABA, membranes of CHO K1 cells stably expressing the receptor
T1 construct: expressed in transfected cells; membranes
T1 sequence (P30542 1-326): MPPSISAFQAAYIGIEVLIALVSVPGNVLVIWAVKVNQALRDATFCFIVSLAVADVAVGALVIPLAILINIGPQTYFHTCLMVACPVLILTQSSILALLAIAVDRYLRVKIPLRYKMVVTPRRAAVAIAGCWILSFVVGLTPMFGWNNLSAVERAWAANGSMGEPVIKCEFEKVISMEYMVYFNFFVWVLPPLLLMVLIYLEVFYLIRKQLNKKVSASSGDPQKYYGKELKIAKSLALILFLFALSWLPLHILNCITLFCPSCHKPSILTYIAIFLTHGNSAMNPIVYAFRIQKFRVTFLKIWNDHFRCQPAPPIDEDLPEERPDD

[1] = target: T2, recombinant human A2A receptors (Homo sapiens, UniProt P29274); test: Radioligand competition binding with 125I-APE or 125I-ZM241385, Sf9 cell membranes; details: 125I-APE or 125I-ZM241385, Sf9 membranes
T2 construct: expressed in transfected cells; host or cells: Sf9 insect cells infected with virus; membranes
T2 sequence (P29274 whole entry): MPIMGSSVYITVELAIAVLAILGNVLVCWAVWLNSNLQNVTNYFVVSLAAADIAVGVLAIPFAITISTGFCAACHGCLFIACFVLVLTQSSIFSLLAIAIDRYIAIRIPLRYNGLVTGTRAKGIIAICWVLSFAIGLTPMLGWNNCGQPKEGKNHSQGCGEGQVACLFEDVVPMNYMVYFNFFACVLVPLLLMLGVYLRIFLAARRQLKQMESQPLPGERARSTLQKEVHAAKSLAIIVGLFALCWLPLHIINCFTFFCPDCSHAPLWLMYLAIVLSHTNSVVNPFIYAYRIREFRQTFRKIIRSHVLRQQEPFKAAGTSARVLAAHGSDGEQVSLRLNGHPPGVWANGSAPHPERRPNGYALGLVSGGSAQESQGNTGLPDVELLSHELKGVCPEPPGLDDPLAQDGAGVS
Description: Cell culture and membrane preparation. Sf9 cells were cultured in Grace's medium supplemented with 10% fetal bovine serum, 2.5 μg/ml amphotericin B and 50 μg/ml gentamycin in an atmosphere of 50% N2/50% O2. Viral infection was performed at a density of 2.5×10^6 cells/mL with a multiplicity of infection of two for each virus used. Infected cells were harvested 3 days post-infection and washed twice in insect PBS (PBS pH 6.3). Cells were then resuspended in lysis buffer (20 mM HEPES pH 7.5, 150 mM NaCl, 3 mM MgCl2, 1 mM α-mercaptoethanol (BME), 5 μg/mL leupeptin, 5 μg/mL pepstatin A, 1 μg/mL aprotinin, and 0.1 mM PMSF) and snap frozen for storage at −80° C. Cells were thawed on ice, brought to 30 mL total volume in lysis buffer, and burst by N2 cavitation (600 psi for 20 minutes). A low-speed centrifugation was performed to remove any unlysed cells (1000×g for 10 minutes), followed by a high-speed centrifugation (17,000×g for 30 minutes). The pellet from the final centrifugation was homogenized in buffer containing 20 mM HEPES pH 8, 1100 mM NaCl, 1% glycerol, 2 μg/mL leupeptin, 2 μg/mL pepstatin A, 2 μg/mL Aprotinin, 0.1 mM PMSF, and 10 μM GDP using a small glass homogenizer followed by passage through a 26 gauge needle. Membranes were aliquoted, snap frozen in liquid N2, and stored at −80° C.
Radioligand Binding Assays. […] Binding experiments were performed in triplicate with 5 μg (A2A) or 25 μg (A1 and A3) membrane protein in a total volume of 00.1 mL HE buffer (20 mM HEPES and 1 mM EDTA) with 1 U/mL adenosine deaminase and 5 mM MgCl2 with or without 50 μM GTPγS. Membranes were incubated with radioligands at room temperature for three hours (for agonists) or two hours (for antagonists) in Millipore Multiscreen® 96-well GF/C filter plates and assays were terminated by rapid filtration on a cell harvester (Brandel, Gaithersburg, Md.) followed by 4×150 μl washes over 30 seconds with ice cold 10 mM Tris-HCl, pH 7.4, 10 mM MgCl2. Nonspecific binding was measured in the presence of 50 μM NECA.

human A3 AR = target: T3, human A3 AR (Homo sapiens, UniProt P0DMS8); test: Radioligand competition binding with 125I-ABA, membranes of HEK 293 cells stably expressing the receptor
T3 construct: expressed in transfected cells; membranes
T3 sequence (P0DMS8 1-318): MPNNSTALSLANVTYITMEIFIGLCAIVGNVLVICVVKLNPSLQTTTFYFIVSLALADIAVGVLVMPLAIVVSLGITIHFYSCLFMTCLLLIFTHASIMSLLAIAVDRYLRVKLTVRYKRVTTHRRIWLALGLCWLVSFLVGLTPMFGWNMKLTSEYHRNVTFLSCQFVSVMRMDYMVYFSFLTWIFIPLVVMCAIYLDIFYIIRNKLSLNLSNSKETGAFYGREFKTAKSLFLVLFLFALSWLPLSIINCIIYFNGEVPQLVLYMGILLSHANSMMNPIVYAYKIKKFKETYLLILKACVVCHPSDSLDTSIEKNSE
Description: Cell culture and membrane preparation. Sf9 cells were cultured in Grace's medium supplemented with 10% fetal bovine serum, 2.5 μg/ml amphotericin B and 50 μg/ml gentamycin in an atmosphere of 50% N2/50% O2. Viral infection was performed at a density of 2.5×10^6 cells/mL with a multiplicity of infection of two for each virus used. Infected cells were harvested 3 days post-infection and washed twice in insect PBS (PBS pH 6.3). Cells were then resuspended in lysis buffer (20 mM HEPES pH 7.5, 150 mM NaCl, 3 mM MgCl2, 1 mM α-mercaptoethanol (BME), 5 μg/mL leupeptin, 5 μg/mL pepstatin A, 1 μg/mL aprotinin, and 0.1 mM PMSF) and snap frozen for storage at −80° C. Cells were thawed on ice, brought to 30 mL total volume in lysis buffer, and burst by N2 cavitation (600 psi for 20 minutes). A low-speed centrifugation was performed to remove any unlysed cells (1000×g for 10 minutes), followed by a high-speed centrifugation (17,000×g for 30 minutes). The pellet from the final centrifugation was homogenized in buffer containing 20 mM HEPES pH 8, 1100 mM NaCl, 1% glycerol, 2 μg/mL leupeptin, 2 μg/mL pepstatin A, 2 μg/mL Aprotinin, 0.1 mM PMSF, and 10 μM GDP using a small glass homogenizer followed by passage through a 26 gauge needle. Membranes were aliquoted, snap frozen in liquid N2, and stored at −80° C. Membranes from cells stably expressing the human A1 AR (CHO K1 cells) or A3 AR (HEK 293 cells) were prepared as described (Robeva et al., 1996).
Radioligand Binding Assays. Radioligand binding to recombinant human A2A receptors in Sf9 cell membranes was performed using either the radiolabeled agonist, ^125I-APE (Luthin et al., 1995) or the radiolabeled antagonist, ^125I-ZM241385 (^125I-ZM). To detect the high affinity, GTPγS-sensitive state of A1 and A3 AR, we used the agonist, ^125I-ABA (Linden et al., 1985; Linden et al., 1993). Binding experiments were performed in triplicate with 5 μg (A2A) or 25 μg (A1 and A3) membrane protein in a total volume of 00.1 mL HE buffer (20 mM HEPES and 1 mM EDTA) with 1 U/mL adenosine deaminase and 5 mM MgCl2 with or without 50 μM GTPγS. Membranes were incubated with radioligands at room temperature for three hours (for agonists) or two hours (for antagonists) in Millipore Multiscreen® 96-well GF/C filter plates and assays were terminated by rapid filtration on a cell harvester (Brandel, Gaithersburg, Md.) followed by 4×150 μl washes over 30 seconds with ice cold 10 mM Tris-HCl, pH 7.4, 10 mM MgCl2. Nonspecific binding was measured in the presence of 50 μM NECA. Competition binding assays were performed as described (Robeva et al., 1996) using 0.5-1 nM ^125I-APE, ^125I-ZM241385, or ^125I-ABA. […] The Ki values for competing compound binding to a single site were derived from IC50 values with correction for radioligand and competing compound depletion as described previously (Linden, 1982).

[2] = system: Purified human neutrophils; test: Luminol enhanced chemiluminescence (neutrophil oxidative activity), fMLP stimulated; assay type: cell-based; details: read-out: Functional
Source text: Chemiluminescence Methods: Luminol enhanced chemiluminescence, a measure of neutrophil oxidative activity, is dependent upon both superoxide production and mobilization of the granule enzyme myeloperoxidase. The light is emitted from unstable high-energy oxygen species such as hypochlorous acid and singlet oxygen generated by activated neutrophils.
Purified human neutrophils (2×10^6/ml) suspended in Hanks balanced salt solution containing 0.1% human serum albumin (HA), adenosine deaminase (1 U/mL) and rolipram (100 nM) were incubated (37 C) in a water bath for 15 min with or without rhTNF (10 U/ml). Following incubation 100 µL aliquots of the PMN were transferred to wells (White walled clear bottom 96 well tissue culture plates Costar #3670; 2 wells/condition) containing […] and luminol (final concentration 100M) with or without adenosine agonist (final agonist concentrations 0.01-1000 nM). The plate was incubated 5 min (37 C) and then fMLP (50 l in HA; final concentration […]) was added to all wells.
Peak chemiluminescence was determined with a Victor 1420 Multilabel Counter in the chemiluminescence mode using the Wallac Workstation software. Data are presented as peak chemiluminescence as percent of activity in the absence of an adenosine agonist. The EC50 was determined using PRISM software. All compounds were tested with PMNs from three separate donors.

[3] = Ki derived from IC50, class symbols

| Compound | Ki (human A1 AR; Ki derived from IC50) [nM] | Ki ([1]; Ki derived from IC50) [nM] | Ki (human A3 AR; Ki derived from IC50) [nM] | EC50 ([2]; Homo sapiens, Neutrophil) [nM] | Ki (human A1 AR; [3]) [nM] | Ki ([1]; class symbols) [nM] | Ki (human A3 AR; [3]) [nM] | EC50 ([2]; EC50 of peak chemiluminescence, human PMN, rolipram 100 nM, fMLP, three donors, class symbols) [nM] |
| --- | --- | --- | --- | --- | --- | --- | --- | --- |
| Nc1nc(C#CCC2CCN(C(=O)Oc3ccccc3)CC2)nc2c1ncn2[C@@H]1O[C@H](C(=O)NC2CC2)C(O)[C@@H]1O (stereo partly drawn) [Compound 1, N-Cyclopropyl 2-{3-[1-(phenyloxycarbonyl)-4-piperidinyl]-1-propyn-1-yl}adenosine-5′-uronamide, reference compound] | 34.7 | 0.563 | 34.1 | 0.56 |  |  |  |  |
| Nc1nc(C#CCC2CCN(C(=O)OCc3ccccc3)CC2)nc2c1ncn2[C@@H]1O[C@H](C(=O)NC2CC2)C(O)[C@@H]1O (stereo partly drawn) [Compound 2, N-Cyclopropyl 2-{3-[1-(benzyloxycarbonyl)-4-piperidinyl]-1-propyn-1-yl}adenosine-5′-uronamide, reference compound] |  |  |  | < 1 | < 100 | < 1 | < 100 |  |
| Nc1nc(C#CCC2CCN(C(=O)Oc3cccc(C(F)(F)F)c3)CC2)nc2c1ncn2[C@@H]1O[C@H](C(=O)NC2CC2)C(O)[C@@H]1O (stereo partly drawn) [Compound 3, N-Cyclopropyl 2-{3-[1-(3-(trifluoromethyl)phenoxycarbonyl)-4-piperidinyl]-1-propyn-1-yl}adenosine-5′-uronamide] |  |  |  | < 10 | < 100 | < 1 | < 100 |  |
| Nc1nc(C#CCC2CCN(C(=O)Oc3ccccc3)CC2)nc2c1ncn2[C@@H]1O[C@H](CO)[C@@H](O)[C@H]1O [Compound 4, 2-{3-[1-(Phenoxycarbonyl)piperidin-4-yl]propyn-1-yl}adenosine, reference compound] |  |  |  | < 10 | < 100 | < 1 | < 10 |  |
| Nc1nc(C#CCC2CCN(C(=O)OCCOCc3ccccc3)CC2)nc2c1ncn2[C@@H]1O[C@H](C(=O)NC2CC2)C(O)[C@@H]1O (stereo partly drawn) [Compound 5, N-Cyclopropyl 2-{3-[1-(2-(benzyloxy)ethoxycarbonoyl)-4-piperidinyl]-1-propyn-1-yl}adenosine-5′-uronamide] |  |  |  | < 10 | < 100 | < 1 | < 100 |  |
| Nc1nc(C#CCC2CCN(C(=O)Oc3cccc(C(F)(F)F)c3)CC2)nc2c1ncn2[C@@H]1O[C@H](CO)C(O)[C@@H]1O (stereo partly drawn) [Compound 6, 2-{3-[1-((3-Trifluoromethyl)phenoxycarbonyl)piperidin-4-yl]propyn-1-yl}adenosine] |  |  |  | < 10 | < 100 | < 1 | < 10 |  |
| Nc1nc(C#CCC2CCN(C(=O)OCCOCc3ccccc3)CC2)nc2c1ncn2[C@@H]1O[C@H](CO)C(O)[C@@H]1O (stereo partly drawn) [Compound 7, 2-{3-[1-((2-Benzyloxy)ethoxycarbonyl)piperidin-4-yl]propyn-1-yl}adenosine] |  |  |  | < 10 | < 100 | < 1 | < 100 |  |
| Nc1nc(C#CCC2CCN(C(=O)Oc3ccc(F)cc3)CC2)nc2c1ncn2[C@@H]1O[C@H](C(=O)NC2CC2)C(O)[C@@H]1O (stereo partly drawn) [Compound 8, N-Cyclopropyl 2-{3-[1-(4-fluorophenoxycarbonyl)-4-piperidinyl]-1-propyn-1-yl}adenosine-5′-uronamide] |  |  |  | < 1 | < 100 | < 1 | < 100 |  |
| COC(=O)c1ccc(OC(=O)N2CCC(CC#Cc3nc(N)c4ncn([C@@H]5O[C@H](C(=O)NC6CC6)C(O)[C@@H]5O)c4n3)CC2)cc1 (stereo partly drawn) [Compound 9, N-Cyclopropyl 2-{3-[1-(4-methoxycarbonylphenoxycarbanoyl)-4-piperidinyl]-1-propyn-1-yl}adenosine-5′-uronamide] |  |  |  | < 10 | < 100 | < 1 | < 100 |  |
| Nc1nc(C#CCC2CCN(C(=O)Oc3ccc([N+](=O)[O-])cc3)CC2)nc2c1ncn2[C@@H]1O[C@H](C(=O)NC2CC2)C(O)[C@@H]1O (stereo partly drawn) [Compound 10, N-Cyclopropyl 2-{3-[1-(4-nitrophenyloxycarbonyl)-4-piperidinyl]-1-propyn-1-yl}adenosine-5′-uronamide] |  |  |  | < 1 | < 100 | < 1 | < 100 |  |
| N-Cyclopropyl 2-[3-[1-(4-nitrophenoxycarbonyl) 4-propylpiperidine]}-1-carboxylate]adenosine-5′-uronamide [Compound 40] |  |  |  |  |  |  | > 100 | < 100 |
